Data published in EPA's ToxValDB 9.5 (doi:10.2903/j.efsa.2009.191r).

Key:
[1] = system: Canidae; conditions: chronic; duration: 1 years; oral; Dog Other; clinical signs
[2] = system: Apis mellifera; conditions: acute, mortality
[3] = system: Colinus virginianus; conditions: acute, oral, mortality; for LC50: diet
[4] = system: Rattus norvegicus; conditions: acute; oral; mortality
[5] = system: Anas platyrhynchos; conditions: short-term; oral; feed; mortality
[6] = system: Oncorhynchus mykiss; conditions: acute; duration: 96 hours; mortality
[7] = system: Daphnia magna; conditions: acute; duration: 48 hours; mortality

Compound	NOAEL [1] [mg/kg-day]	LD50 ([2]; dermal) [µg/piece]	LD50 ([2]; oral, unspecified) [µg/piece]	LC50 [3] [mg/kg-day]	LD50 [3] [mg/kg-day]	LD50 [4] [mg/kg-day]	LC50 [5] [mg/kg-day]	LC50 [6] [µg/mL]	LC50 [7] [µg/mL]
COc1ccc([N+](=O)[O-])cc1[O-].[Na+] [Sodium 2-methoxy-5-nitrophenolate]	0.3	> 100	132	1830	2070	716			
O=[N+]([O-])c1ccccc1[O-].[Na+] [Sodium 2-nitrophenolate]		> 100	124	> 2700	1050	960	> 2540		
O=[N+]([O-])c1ccc([O-])cc1.[Na+] [Sodium 4-nitrophenolate]	0.3	111	> 61.2	> 1410	> 1670	346		25	27.7
